Experimental findings from ChEMBL document CHEMBL1221403, “Topsentinols, 24-isopropyl steroids from the marine sponge Topsentia sp” (J Nat Prod, 2010) are described below.

Assay [1] concerns the target Beta-secretase 1 (Homo sapiens, UniProt P56817). In words: Inhibition of BACE1-mediated cleavage of amyloid precursor protein after 16 hrs by spectrophotometry.
Assay [2] in a line: Inhibition of chymotrypsin in presence of 0.01% Triton X-100.
Assay [3] in a line: Inhibition of chymotrypsin in absence of Triton X-100.

SMILES strings stand for the structures. Active and inactive are the calls of the source. No cut-off for these calls is given here.

Sequence of Beta-secretase 1 (P56817 whole entry): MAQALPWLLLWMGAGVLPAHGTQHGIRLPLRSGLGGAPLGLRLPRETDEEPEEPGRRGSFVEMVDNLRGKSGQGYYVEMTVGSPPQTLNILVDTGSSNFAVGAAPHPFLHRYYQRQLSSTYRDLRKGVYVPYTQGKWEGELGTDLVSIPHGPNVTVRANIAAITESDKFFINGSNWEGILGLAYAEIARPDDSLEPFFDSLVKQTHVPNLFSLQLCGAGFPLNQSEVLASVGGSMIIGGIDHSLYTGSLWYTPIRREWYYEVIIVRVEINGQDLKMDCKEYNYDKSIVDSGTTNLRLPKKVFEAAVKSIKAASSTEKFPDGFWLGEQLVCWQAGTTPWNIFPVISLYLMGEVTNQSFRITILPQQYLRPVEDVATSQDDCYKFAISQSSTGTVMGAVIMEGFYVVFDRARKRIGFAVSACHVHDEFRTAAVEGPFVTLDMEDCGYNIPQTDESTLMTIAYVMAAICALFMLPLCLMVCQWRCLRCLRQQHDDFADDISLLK

As for `CC(C)C(/C=C/[C@@H](C)[C@H]1CC[C@H]2[C@@H]3CC=C4C[C@@H](O)CC[C@]4(C)[C@H]3CC[C@]12C)C(C)C`, in assay [1], the inhibition result is “inactive”. As to `CC(C)C(/C=C/[C@@H](C)[C@H]1CC[C@H]2[C@@H]3C[C@H](O)[C@H]4C[C@H](O)[C@@H](O)C[C@]4(C)[C@H]3CC[C@]12C)C(C)C`, in assay [1], the inhibition result was “inactive”. The term IC50 denotes the point on the concentration scale where inhibition reaches its midpoint. For `CC(C)C(/C=C\[C@@H](C)[C@H]1CC[C@H]2[C@@H]3C[C@H](OS(=O)(=O)O)[C@H]4C[C@H](OS(=O)(=O)O)[C@@H](OS(=O)(=O)O)C[C@]4(C)[C@H]3CC[C@]12C)C(C)C` [TOPSENTINOL K TRISULFATE], the IC50 is 1.2 µM in assay [1], 34.6 µM in assay [2] and 2.7 µM in assay [3]. Besides, the inhibition result in assay [1] was “Dose-dependent effect”. Regarding `CC(C)C(/C=C\[C@@H](C)[C@H]1CC[C@H]2[C@@H]3C[C@H](O)[C@H]4C[C@H](O)[C@@H](O)C[C@]4(C)[C@H]3CC[C@]12C)C(C)C`, in assay [1], the inhibition entry was “inactive”. Still for that read-out and setting: next, `C=C(C)C(/C=C\[C@@H](C)[C@H]1CC[C@H]2[C@@H]3C[C@H](O)[C@H]4C[C@H](O)[C@@H](O)C[C@]4(C)[C@H]3CC[C@]12C)C(C)C` (stereo partly drawn): “inactive”.
